Measured values as given in patent US20230059009A1, “INHIBITORS OF LIN28 AND METHODS OF USE THEREOF” (The Regents of the University of California, priority 2019, published 2023).
Values belong to the compound of their own block, whether it stands above or below them.

Key:
22RV1 [1] = assay: Cell viability, MTT assay, 22RV1; type: cell-based; settings: Homo sapiens, 22RV1 (Prostate), 96 hr
Procedure: (§1) To measure cell viability, cell titer glow (CTG, Promega CellTiter-Glo 2.0 Assay) and MTT assays (SigmaAldrich, Cell Proliferation Kit I) were performed. Briefly, cells were serum starved overnight prior to seeding in 96-well plates. Following 24 h incubation, cells were treated with increasing concentrations of JGJ compounds for 96 hr. At assay read-out, CellTiter-Glo reagent was added and luminescence was measured after 10-minutes incubation at room temperature. For the MTT assay, MTT labeling reagent was added and incubated for 4 h. Subsequently, medium was removed and 50 μL DMSO was added to solubilize the crystals, and absorbance was measured at 570 nm. Cell viability was calculated as (Sample-Background)/(Control-Background).

22RV1 [2] = assay: Cell viability, CellTiter-Glo (CTG), 22RV1; type: cell-based; settings: Homo sapiens, 22RV1 (Prostate), 96 hr
Procedure: as §1

MDA-MB231 = assay: Cell viability, CTG, MDA-MB231; type: cell-based; settings: Homo sapiens, MDA-MB-231, MDA-MB231 (Breast)
Procedure: as §1, with “(Sample-Background)/(Control-Background). Current standard of care drugs, Enzalutamide, Palbociclib and Cetuximab were used as comparative controls.” for “(Sample-Background)/(Control-Background).”

MCF7 [3] = assay: Cell viability, CTG, MCF7; type: cell-based; settings: Homo sapiens, MCF7 (Breast)
Procedure: as §1, with “(Sample-Background)/(Control-Background). Current standard of care drugs, Enzalutamide, Palbociclib and Cetuximab were used as comparative controls.” for “(Sample-Background)/(Control-Background).”

HCT-116 = assay: Cell viability, CTG, HCT-116; type: cell-based; settings: Homo sapiens, HCT-116 (Colon)
Procedure: as §1, with “(Sample-Background)/(Control-Background). Current standard of care drugs, Enzalutamide, Palbociclib and Cetuximab were used as comparative controls.” for “(Sample-Background)/(Control-Background).”

SW620 [4] = assay: Cell viability, MTT assay, SW620; type: cell-based; settings: Homo sapiens, SW-620, SW620 (Colon)
Procedure: as §1, with “(Sample-Background)/(Control-Background). Current standard of care drugs, Enzalutamide, Palbociclib and Cetuximab were used as comparative controls.” for “(Sample-Background)/(Control-Background).”

SW620 [5] = assay: Cell viability, CTG, SW620; type: cell-based; settings: Homo sapiens, SW-620, SW620 (Colon)
Procedure: as §1, with “(Sample-Background)/(Control-Background). Current standard of care drugs, Enzalutamide, Palbociclib and Cetuximab were used as comparative controls.” for “(Sample-Background)/(Control-Background).”

SW480 [6] = assay: Cell viability, MTT assay, SW480; type: cell-based; settings: Homo sapiens, SW480 (Colon)
Procedure: as §1, with “(Sample-Background)/(Control-Background). Current standard of care drugs, Enzalutamide, Palbociclib and Cetuximab were used as comparative controls.” for “(Sample-Background)/(Control-Background).”

SW480 [7] = assay: Cell viability, CTG, SW480; type: cell-based; settings: Homo sapiens, SW480 (Colon)
Procedure: as §1

ASPC-1 = assay: Cell viability, CTG, ASPC-1; type: cell-based; settings: Homo sapiens, ASPC1, ASPC-1 (Pancreatic)
Procedure: as §1, with “(Sample-Background)/(Control-Background). Current standard of care drugs, Enzalutamide, Palbociclib and Cetuximab were used as comparative controls.” for “(Sample-Background)/(Control-Background).”

CAPAN-1 = assay: Cell viability, CTG, CAPAN-1; type: cell-based; settings: Homo sapiens, CAPAN-1 (Pancreatic)
Procedure: as §1, with “(Sample-Background)/(Control-Background). Current standard of care drugs, Enzalutamide, Palbociclib and Cetuximab were used as comparative controls.” for “(Sample-Background)/(Control-Background).”

Caco2 permeability = type: in vitro ADME; settings: human, Caco-2, Conc. 5 uM
[8] = Microsomal stability, CD-1 Mouse; type: in vitro ADME; settings: Conc. 5 uM
[9] = Microsomal stability, Human; type: in vitro ADME; settings: Conc. 5 uM
CYP 1A2 = target: T1, CYP 1A2 (Homo sapiens, UniProt P05177); assay: CYP inhibition 1A2; type: in vitro ADME; set-up: unit not given here; settings: Conc. 10 uM
T1 sequence (P05177 1-516): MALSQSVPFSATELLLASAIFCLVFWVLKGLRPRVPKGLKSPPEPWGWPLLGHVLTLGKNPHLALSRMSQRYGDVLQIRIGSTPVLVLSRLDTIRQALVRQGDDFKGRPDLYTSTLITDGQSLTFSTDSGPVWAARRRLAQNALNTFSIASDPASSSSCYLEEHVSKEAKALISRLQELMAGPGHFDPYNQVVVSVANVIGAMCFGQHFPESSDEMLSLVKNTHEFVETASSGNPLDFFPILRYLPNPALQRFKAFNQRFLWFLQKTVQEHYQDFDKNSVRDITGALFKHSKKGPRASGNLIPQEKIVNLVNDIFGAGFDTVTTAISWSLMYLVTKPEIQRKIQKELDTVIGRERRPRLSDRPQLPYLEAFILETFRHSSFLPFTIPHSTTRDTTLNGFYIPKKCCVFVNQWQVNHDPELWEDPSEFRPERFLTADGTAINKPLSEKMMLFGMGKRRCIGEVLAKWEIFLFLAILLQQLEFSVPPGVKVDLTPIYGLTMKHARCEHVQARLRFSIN

CYP 2B6 = target: T2, CYP 2B6 (Homo sapiens, UniProt P20813); assay: CYP inhibition 2B6; type: in vitro ADME; set-up: unit not given here; settings: Conc. 10 uM
T2 sequence (P20813 1-491): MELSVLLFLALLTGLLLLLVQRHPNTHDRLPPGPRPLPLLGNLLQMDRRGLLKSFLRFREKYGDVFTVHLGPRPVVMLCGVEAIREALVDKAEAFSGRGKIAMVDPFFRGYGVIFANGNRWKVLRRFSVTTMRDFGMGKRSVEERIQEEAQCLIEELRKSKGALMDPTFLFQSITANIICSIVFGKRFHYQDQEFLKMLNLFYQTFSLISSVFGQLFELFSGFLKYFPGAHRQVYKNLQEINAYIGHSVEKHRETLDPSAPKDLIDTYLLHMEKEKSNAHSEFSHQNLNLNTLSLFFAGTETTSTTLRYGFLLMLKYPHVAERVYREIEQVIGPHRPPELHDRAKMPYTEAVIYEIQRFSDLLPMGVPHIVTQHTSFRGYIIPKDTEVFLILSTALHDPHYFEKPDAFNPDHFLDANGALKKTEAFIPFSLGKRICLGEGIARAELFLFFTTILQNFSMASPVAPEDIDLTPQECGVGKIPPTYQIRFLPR

CYP 2C8 = target: T3, CYP 2C8 (Homo sapiens, UniProt P10632); assay: CYP inhibition 2C8; type: in vitro ADME; set-up: unit not given here; settings: Conc. 10 uM
T3 sequence (P10632 1-490): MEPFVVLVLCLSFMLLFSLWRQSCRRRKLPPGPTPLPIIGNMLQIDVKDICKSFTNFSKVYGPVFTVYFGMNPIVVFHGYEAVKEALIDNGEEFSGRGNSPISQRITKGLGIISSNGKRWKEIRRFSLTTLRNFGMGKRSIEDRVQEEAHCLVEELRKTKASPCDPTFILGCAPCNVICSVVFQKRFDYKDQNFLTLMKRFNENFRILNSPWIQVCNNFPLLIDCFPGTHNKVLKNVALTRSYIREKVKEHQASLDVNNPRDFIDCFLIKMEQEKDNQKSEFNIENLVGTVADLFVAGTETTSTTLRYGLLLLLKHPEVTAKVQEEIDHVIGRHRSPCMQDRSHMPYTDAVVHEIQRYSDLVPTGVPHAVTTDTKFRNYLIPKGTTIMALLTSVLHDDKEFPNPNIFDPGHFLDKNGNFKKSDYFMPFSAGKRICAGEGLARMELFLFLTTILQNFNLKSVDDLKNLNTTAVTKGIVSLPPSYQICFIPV

CYP 2C9 = CYP 2C9 (Homo sapiens, UniProt P11712); assay: CYP inhibition 2C9; type: in vitro ADME; set-up: unit not given here; settings: Conc. 10 uM
Chain of CYP 2C9 (P11712 whole entry): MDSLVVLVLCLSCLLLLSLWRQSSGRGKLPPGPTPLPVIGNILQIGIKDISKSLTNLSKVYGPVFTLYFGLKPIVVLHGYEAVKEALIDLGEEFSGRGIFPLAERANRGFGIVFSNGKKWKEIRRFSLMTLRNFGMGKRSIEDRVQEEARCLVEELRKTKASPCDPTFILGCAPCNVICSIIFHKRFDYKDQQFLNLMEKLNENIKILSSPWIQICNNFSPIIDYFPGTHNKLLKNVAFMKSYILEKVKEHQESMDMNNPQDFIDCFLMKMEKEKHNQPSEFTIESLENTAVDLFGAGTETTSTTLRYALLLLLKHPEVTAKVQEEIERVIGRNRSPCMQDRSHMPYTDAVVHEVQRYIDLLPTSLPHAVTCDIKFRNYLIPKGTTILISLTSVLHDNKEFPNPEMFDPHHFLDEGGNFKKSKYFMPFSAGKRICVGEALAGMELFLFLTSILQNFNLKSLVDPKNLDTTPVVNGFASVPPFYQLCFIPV

CYP 2C19 = CYP 2C19 (Homo sapiens, UniProt P33261); assay: CYP inhibition 2C19; type: in vitro ADME; set-up: unit not given here; settings: Conc. 10 uM
Chain of CYP 2C19 (P33261 whole entry): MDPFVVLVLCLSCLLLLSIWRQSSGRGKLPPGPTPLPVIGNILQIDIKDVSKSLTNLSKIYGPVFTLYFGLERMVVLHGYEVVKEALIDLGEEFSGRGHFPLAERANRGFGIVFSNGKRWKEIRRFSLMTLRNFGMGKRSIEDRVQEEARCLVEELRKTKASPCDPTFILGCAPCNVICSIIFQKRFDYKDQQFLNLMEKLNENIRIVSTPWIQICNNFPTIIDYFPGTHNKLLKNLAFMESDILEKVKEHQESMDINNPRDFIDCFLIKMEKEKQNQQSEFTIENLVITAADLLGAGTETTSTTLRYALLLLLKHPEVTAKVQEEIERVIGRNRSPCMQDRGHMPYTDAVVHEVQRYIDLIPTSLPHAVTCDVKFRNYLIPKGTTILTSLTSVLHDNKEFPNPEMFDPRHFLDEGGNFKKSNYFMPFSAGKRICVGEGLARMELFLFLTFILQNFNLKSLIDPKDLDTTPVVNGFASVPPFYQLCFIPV

CYP 2D6 = CYP 2D6 (Homo sapiens, UniProt P10635); assay: CYP inhibition 2D6; type: in vitro ADME; set-up: unit not given here; settings: Conc. 10 uM
Chain of CYP 2D6 (P10635 whole entry): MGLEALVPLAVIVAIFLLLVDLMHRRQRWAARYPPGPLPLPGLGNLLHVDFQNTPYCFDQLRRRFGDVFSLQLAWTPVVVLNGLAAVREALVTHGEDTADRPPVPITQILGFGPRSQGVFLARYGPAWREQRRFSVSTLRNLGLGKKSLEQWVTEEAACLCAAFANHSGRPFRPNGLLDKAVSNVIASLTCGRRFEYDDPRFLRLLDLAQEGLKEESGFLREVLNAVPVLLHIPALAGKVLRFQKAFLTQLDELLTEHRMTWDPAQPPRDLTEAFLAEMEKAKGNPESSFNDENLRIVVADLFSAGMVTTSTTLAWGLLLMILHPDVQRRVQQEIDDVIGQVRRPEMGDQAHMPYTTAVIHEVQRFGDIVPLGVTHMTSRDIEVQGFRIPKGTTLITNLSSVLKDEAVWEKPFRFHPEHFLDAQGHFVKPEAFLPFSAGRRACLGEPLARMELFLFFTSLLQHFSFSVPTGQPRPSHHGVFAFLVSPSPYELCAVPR

MYC-driven cancers = assay: Cell viability and cell counting assays in cancer cells; type: cell-based; settings: TNBC, CRPC, lung and colorectal adenocarcinoma cells
Procedure: To test whether LN1632 and novel analogs thereof affect cancer cell growth, cell viability and cell counting assays in TNBC (FIG. 14B-D), castration resistant prostate cancer cells (CRPC, FIG. 15A-C) and colorectal cancer cells (CRC, FIG. 15A-C) were performed.
as §1, with “(Sample-Background)/(Control-Background). Current standard of care drugs, Enzalutamide, Palbociclib and Cetuximab were used as comparative controls.” for “(Sample-Background)/(Control-Background).”

LSCs = assay: Colony forming capacity (CFC) of iMLL-AF9 LT-HSC derived LSCs; type: cell-based, mouse; settings: 200 nM Ara-C or 30 μM 1632, 48 h
Description: In addition, Lin28 was independently found to be a key driver in MLL-associated leukemias (56). In order to further characterize the role of Lin28/let-7 in regulating AML, LSC proliferation and therapy resistance in vivo, we used a doxycycline (DOX) inducible, transgenic mouse model for MLL-AF9-driven AML (iMLL-AF9 (57)). In this model, long-term HSC (LT-HSC, Lin^−CD34^−[…] c-Kit^+ CD150^+ CD48^−) derived AML blasts closely mirror an LSC-like phenotype resulting in a particularly aggressive, Cytarabine (Ara-C) resistant AML (57). […] Moreover, relapsed AML cells arising from rLSCs after treatment with Ara-C (100 mg/kg) at d+60 were even further enriched in Lin28b expression (FIG. 2B). Additionally, levels of both, let-7a and let-7b miRNAs, negatively correlated with increased Lin28b in rLSCs (FIG. 2C) (10, 39). Our findings are consistent with papers reporting that increased Lin28 correlates with disease recurrence post chemotherapy in colon and liver cancer stem cells (22, 58).
As Lin28 is overexpressed human AML, LSCs and rLSCs, we sought to determine if genetic Lin28b or pharmacologic Lin28/let-7 inhibition via LN1632 can abrogate proliferation of LSCs and thus overcome their therapy resistance. […]

BT-549 = assay: Cell viability, MTT assay, BT-549; type: cell-based; settings: Homo sapiens, BT-549 (Breast)
Procedure: as §1, with “(Sample-Background)/(Control-Background). Current standard of care drugs, Enzalutamide, Palbociclib and Cetuximab were used as comparative controls.” for “(Sample-Background)/(Control-Background).”

MCF7 [10] = assay: Cell viability, MTT assay, MCF7; type: cell-based; settings: Homo sapiens, MCF7 (Breast)
Procedure: as §1, with “(Sample-Background)/(Control-Background). Current standard of care drugs, Enzalutamide, Palbociclib and Cetuximab were used as comparative controls.” for “(Sample-Background)/(Control-Background).”

[11] = microsomes, read-out: Microsomal stability T½

- IC50 (22RV1 [1]): 2 µM
- IC50 (22RV1 [2]): 3 µM
- IC50 (MDA-MB231): 11 µM
- IC50 (MCF7 [3]): 15 µM
- IC50 (HCT-116): 76 µM
- IC50 (SW620 [4]): 8.5 µM
- IC50 (SW620 [5]): 15 µM
- IC50 (SW480 [6]): 26 µM
- IC50 (SW480 [7]): 39 µM
- IC50 (ASPC-1): 31 µM
- Papp A→B at 5 uM (Caco2 permeability): 0.44 ×10⁻⁶ cm/s
- Papp B→A at 5 uM (Caco2 permeability): 1.69 ×10⁻⁶ cm/s
- efflux ratio at 5 uM (Caco2 permeability): 3.9
- recovery at 5 uM (Caco2 permeability; read-out: Caco2 Mean A-B % Recovery): 47%
- Microsomal stability % Remaining at T30 [8]: T30 = 78.6%
- microsomal CLint at 5 uM ([8]; microsomes): 14.9 µL/min/mg
- half-life at 5 uM [8, 11]: 1.55 h
- Microsomal stability % Remaining at T30 [9]: T30 = 91.2%
- microsomal CLint at 5 uM ([9]; microsomes): 11.6 µL/min/mg
- half-life at 5 uM [9, 11]: > 2 h
- CYP inhibition 1A2 (CYP 1A2): 88.9
- CYP inhibition 2B6 (CYP 2B6): 69.6
- CYP inhibition 2C8 (CYP 2C8): 90.5
- CYP inhibition 2C9 (CYP 2C9): 86.6
- CYP inhibition 2C19 (CYP 2C19): 98.3
- CYP inhibition 2D6 (CYP 2D6): 93.9
Structure (SMILES): CC(=O)Nc1cc(F)cc(-c2ccc3[nH]cc(-c4ccccc4)c3n2)c1 [JGJ037, N-(3-Fluoro-5-(3-phenyl-1H-pyrrolo[3,2-b]pyridin-5-yl)phenyl)acetamide]
- IC50 (CAPAN-1): 22 µM
- Proliferation and apoptosis of cancer cells (MYC-driven cancers): reduced proliferation and induced apoptosis preferentially in MYC-driven cancers

Structure (SMILES): Nc1ccn([C@@H]2O[C@H](CO)[C@@H](O)[C@@H]2O)c(=O)n1 [Ara-C, Cytarabine]
- Colony forming capacity cell numbers (CFCs) of LSCs (LSCs): did not alter colony forming capacity cell numbers (CFCs)

- IC50 (BT-549): 72 µM
- IC50 (MDA-MB231): 13 µM
- IC50 (MCF7 [10]): 5 µM
- IC50 (MCF7 [3]): 32 µM
Structure (SMILES): CC(=O)c1c(C)c2cnc(Nc3ccc(N4CCNCC4)cn3)nc2n(C2CCCC2)c1=O [Palbociclib, reference compound]
